The results in this text go back to US20210024483A1, “HETEROCYLCOALKENYL DERIVATIVES USEFUL AS AGONISTS OF THE GPR120 AND / OR GPR40” (Janssen Pharmaceutica NV, priority 2018, published 2021).

Structures are written as SMILES.

For the experiment, the target named is T1, short form of the GPR120 receptor (Homo sapiens, UniProt Q5NUL3).
T1 construct: host or cells: PathHunter CHO-K1 GPR120S beta-Arrestin Cell Line
T1 sequence (Q5NUL3 1-361): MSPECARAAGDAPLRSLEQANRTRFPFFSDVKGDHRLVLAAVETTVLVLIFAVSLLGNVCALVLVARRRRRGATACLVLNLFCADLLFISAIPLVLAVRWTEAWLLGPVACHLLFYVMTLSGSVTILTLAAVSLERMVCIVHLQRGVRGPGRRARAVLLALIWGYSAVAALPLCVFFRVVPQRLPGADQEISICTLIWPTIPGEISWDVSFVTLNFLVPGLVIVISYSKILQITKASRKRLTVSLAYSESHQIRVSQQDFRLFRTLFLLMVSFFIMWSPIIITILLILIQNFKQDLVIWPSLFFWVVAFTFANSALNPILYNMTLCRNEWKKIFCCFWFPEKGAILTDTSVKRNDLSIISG
Briefly: Human GPR120 DiscoveRx PathHunter Beta-Arrestin Assay, Procedure B. The experiment is classed as cell-based. As to conditions: PathHunter CHO-K1 GPR120S cells, 5000 cells/well. From the text:
Human GPR120 DiscoveRx PathHunter® Beta-Arrestin Assay
The binding of an agonist (medium/long chain fatty acids or small molecule agonists) to the G-protein-coupled receptor GPR120 activates phospholipase C, leading to release of intracellular Ca^+2 through the generation of inositol 1,4,5-trisphosphate (InsP3 or IP3). GPR120 activation can also trigger intracellular signaling via recruitment of Beta-Arrestin. In the present method, agonist-induced activation of the human GPR120 receptor is monitored through the use of PathHunter® CHO-K1 GPR120 Beta-Arrestin Cell Line engineered by DiscoveRx, as detailed below. The cell lines were designed to co-express both the ProLink/Enzyme Donor (PK)-tagged GPCR and the Enzyme […] (EA)-tagged Beta-Arrestin fusion proteins. Upon GPR120 receptor stimulation/activation, the EA-tagged Beta-Arrestin portion is translocated to the tagged receptor, where the two enzyme fragments are brought within close proximity. Under these conditions, these fragments can interact and form an active Beta-gal enzyme complex through Enzyme Fragment Complementation (EFC). This active Beta-gal complex can enzymatically hydrolyse the substrate to produce a detectable light signal; therefore, activation as a function of agonist concentration can be expressed as an EC50 value to determine relative compound activities. This in vitro assay therefore serves to assess compound agonist activity of the GPR120.
In Procedure β-arrestin B the cells used were PathHunter® CHO-K1 GPR120S β-Arrestin Cell Line, expressing the short form of the GPR120 receptor (Accession #[…]), with 5000 cells/well.
The selected CHO-K1 GPR120 β-Arrestin cells were cultured in Ham's F12 media supplemented with 10% fetal bovine serum (FBS), 1% Glutamine, 1× p/s, 800 μg/mL G418 and 300 μg/mL Hygromycin B (for selection). Cell stocks were maintained and grown in a sub-confluent state using standard cell culture procedures. The day before the experiment, the cells were harvested with non-enzymatic cell dissociation buffer and re-suspended in complete growth media at the desired concentration. A Corning 384-plate was then seeded with the proper number of cells in a volume of 25 μL, per well. The seeded plates were incubated overnight at 37° C.
On the day of the experiment, the Assay Buffer containing (a) HBSS with Ca^++ and Mg^++, (b) 20 mM HEPES, and (c) 0.1% BSA stabilizer (pH 7.4) was prepared. The growth medium was gently removed from the cell plates and 20 μL of Assay Buffer added to each well. The plate was then incubated at 37° C. for 60 min. Test compounds were serially diluted in Assay Buffer to desired concentrations (more particularly to one or more of the following μM concentrations: 25, 12.5, 6.25, 3.12, 1.56, 0.78, 0.39, 0.19, 0.10, 0.05, 0.02, 0.01). Five μL of compound dilution was then added to each well and the plate incubated at 37° C. for 90 min. The detection reagents were prepared according to the manufacture's instruction. Twelve μL of the detection reagents were added to each well and the plate incubated at room temperature for 60 min.
The plates were read on an EnVision instrument, using Protocol name: Luminescence, Plate type: 384 Costar, Measurement height: 3 mm, Measurement time: 1 s, Aperture: 384 Plate aperture. The % Activity relative to the positive control was calculated using the following equation:
The % Activity values were plotted versus the concentration of test compound and fitted to a sigmoidal dose-response curve with a Hill slope=1 (fixed value) using nonlinear regression with GraphPad Prism 5.0 to calculate the EC50 values. The Fitting Equation was: Y=Bottom+(Top−Bottom)/(1+10^((Log EC50−X)*HillSlope)), where X is the log of the concentration and Y is the response.

Broadly, the EC50 is the concentration that produces a half-maximal response. Lower therefore signals greater potency. `Cc1c(CCC(=O)O)ccc(OCC2=C(c3ccc(Cl)cc3)COCC2)c1C` [ID No. 745, 3-[4-[[5-(4-chlorophenyl)-3,6-dihydro-2H-pyran-4-yl]methoxy]-2,3-dimethyl-phenyl]propanoic acid] gave an EC50 of 0.243 µM.
